Measurements reported in patent US20080269293A1, “PYRAZOLE DERIVATIVES AS ANTI-PLATELET AND ANTI-THROMBOTIC AGENTS” (Pfizer Inc., priority 2006, published 2008).

Target: T1, platelet P2Y1 receptor (Homo sapiens, UniProt P47900)
T1 construct: expressed in transfected cells
Experiment: P2Y1 receptor binding assay ([β-33P]-2-thiomethyl ADP)
Conditions: binding of 0.3 nM [β-33P]-2-thiomethyl ADP, hP2Y1 expressing 132N1 cell membrane, 25° C., 60 minutes
Method: Conducting P2Y, Receptor Binding Assay
[β−^33P]-2-thiomethyl ADP (2100 Ci/mmol) was purchased from PerkinElmer, Protease Inhibitors Complete, EDTA-free, was purchased from Roche, and ADP (Adenosine diphosphate), MRS2179, and 2-thiomethy ADP (2-Me-S-ADP) were purchased from Sigma Chemical Co.
Binding of 0.3 nM [β-^33P]-2-thiomethyl ADP to platelet P2Y1 receptor in 132N1 cell membrane was carried out in triplicate at 25° C. with 96 well plate (Corning, 3365). Nonspecific binding was defined as binding in the presence of 1 μM of 2-Me-S-ADP. One […] of dimethyl sulfoxide (DMSO) or 1 μL of DMSO (Sigma-Aldrich, 472301) containing a test compound diluted to final assay concentrations of 0.1 nM to 1 mM were placed into each well of a Corning 96-well plate. A volume of 60 μL of buffer: 50 mM Tris pH 7.5 (Sigma, T-2194), 1 mM EDTA (Gibco, 15575-038) and 100 mM NaCl (Gibco, 200740-011) containing 0.3 nM [β-^33P]-2-thiomethyl ADP 40 μL of hP2Y1 expressing 132N1 cell membrane prep was added to each well. After incubation on shaker for 60 minutes, The contents of the wells are filtered and washed 8 times with Tomtec Cell Harvester through UniFilter 96, GF/B plates (PerkinElmer, 6005177) Forty five microliters […] Scintillation cocktail (Ultima-Flo-M) was added into each well and plates counted on a Trilux Microbeta Counter.
• 1. Add 1 μL DMSO or compounds into the wells according to the protocol. • 2. Add 60 μL incubation buffer with [β-^33P]-2-thiomethyl ADP into each well. • 3. Add 40 μL hP2Y1 expressing 132N1 cell membrance prep. Incubate 60 minutes on top of the shaker (IKA Shutter MTS4). • 4. Filter and wash 8× with Tomtec Cell Harvester through UniFilter GF/B plates (PerkinElmer, 6005177). • 5. Add 45 μL scintillation cocktail into each well and plates counted on a Trilux Microbeta Counter.

T1 sequence (P47900 whole entry): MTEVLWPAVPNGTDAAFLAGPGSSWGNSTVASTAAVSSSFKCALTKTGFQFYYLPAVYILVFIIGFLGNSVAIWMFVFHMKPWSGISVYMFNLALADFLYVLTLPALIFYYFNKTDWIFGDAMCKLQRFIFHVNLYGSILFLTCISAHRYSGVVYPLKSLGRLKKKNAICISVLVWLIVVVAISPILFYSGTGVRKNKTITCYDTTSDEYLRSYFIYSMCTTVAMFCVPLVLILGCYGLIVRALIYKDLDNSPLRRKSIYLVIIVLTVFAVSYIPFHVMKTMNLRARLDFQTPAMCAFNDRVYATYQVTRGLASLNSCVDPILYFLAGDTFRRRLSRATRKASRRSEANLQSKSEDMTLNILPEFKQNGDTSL

SMILES	IC50
Cc1cc(Oc2ccccc2NC(=O)Nc2ccc(C(C)(C)CO)cc2)n(-c2ccccc2Cl)n1 [Example 85, 1-{2-[2-(2-Chloro-phenyl)-5-methyl-2H-pyrazol-3-yloxy]-phenyl}-3-[4-(2-hydroxy-1,1-dimethyl-ethyl)-phenyl]-urea]	> 10000 nM
COC(=O)c1ccc(NC(=O)Nc2ccccc2Oc2cc(C)nn2-c2ccccc2Cl)cc1 [Example 86, 4-(3-{2-[2-(2-Chloro-phenyl)-5-methyl-2H-pyrazol-3-yloxy]-phenyl}-ureido)-benzoic acid methyl ester]	5060 nM
Cc1cc(Oc2ccccc2NC(=O)Nc2ccc(CO)cc2)n(-c2ccccc2Cl)n1 [Example 87, 1-{2-[2-(2-Chloro-phenyl)-5-methyl-2H-pyrazol-3-yloxy]-phenyl}-3-(4-hydroxymethyl-phenyl)-urea]	> 10000 nM
Cc1cc(Oc2ccccc2NC(=O)Nc2ccc(OC(F)(F)F)cc2)n(-c2cccc(Cl)c2F)n1 [Example 88, 1-{2-[2-(3-Chloro-2-fluoro-phenyl)-5-methyl-2H-pyrazol-3-yloxy]-phenyl}-3-(4-trifluoromethoxy-phenyl)-urea]	149 nM
Cc1cc(Oc2ccccc2NC(=O)Nc2ccc(C3CCCCC3)cc2)n(-c2ccccc2Cl)n1 [Example 89, 1-{2-[2-(2-Chloro-phenyl)-5-methyl-2H-pyrazol-3-yloxy]-phenyl}-3-(4-cyclohexyl-phenyl)-urea]	54 nM
CCc1ccccc1-n1nc(C)cc1Oc1ccccc1NC(=O)Nc1ccc(-c2ccccc2)cc1 [Example 91, 1-(4-(phenyl)phenyl)-3-(2-(1-(2-ethylphenyl)-3-methyl-1H-pyrazol-5-yloxy)phenyl)urea]	87 nM
CCc1ccccc1-n1nc(C)cc1Oc1ccccc1NC(=O)Nc1ccc(Oc2ccccc2)cc1 [Example 92, 1-(2-(1-(2-ethylphenyl)-3-methyl-1H-pyrazol-5-yloxy)phenyl)-3-(4-phenoxyphenyl)urea]	182 nM
CCc1ccccc1-n1nc(C)cc1Oc1ccccc1NC(=O)Nc1ccc(C(F)(F)F)cc1F [Example 93, 1-(2-(1-(2-ethylphenyl)-3-methyl-1H-pyrazol-5-yloxy)phenyl)-3-(2-fluoro-4-(trifluoromethyl)phenyl)urea]	123 nM
CCc1ccccc1-n1nc(C)cc1Oc1ccccc1NC(=O)Nc1ccc(OC(F)(F)F)cc1Cl [Example 94, 1-(2-chloro-4-(trifluoromethoxy)phenyl)-3-(2-(1-(2-ethylphenyl)-3-methyl-1H-pyrazol-5-yloxy)phenyl)urea]	8780 nM
CCc1ccccc1-n1nc(C)cc1Oc1ccccc1NC(=O)Nc1ccccc1 [Example 95, 1-(2-(1-(2-ethylphenyl)-3-methyl-1H-pyrazol-5-yloxy)phenyl)-3-phenylurea]	689 nM
Cc1cc(Oc2ccccc2NC(=O)Nc2ccc(-c3ccccc3)cc2)n(-c2ccccc2Cl)n1 [Example 96, 1-(4-(phenyl)-phenyl)-3-(2-(1-(2-chlorophenyl)-3-methyl-1H-pyrazol-5-yloxy)phenyl)urea]	176 nM
Cc1cc(Oc2ccccc2NC(=O)Nc2ccc(OC(F)(F)F)cc2)n(-c2ccc(C(C)(C)C)cc2)n1 [Example 97, 1-(2-(1-(4-tert-butylphenyl)-3-methyl-1H-pyrazol-5-yloxy)phenyl)-3-(4-(trifluoromethoxy)phenyl)urea]	339 nM
Cc1cc(Oc2ccccc2NC(=O)Nc2ccc(OC(F)(F)F)cc2)n(-c2cc(Cl)ccc2Cl)n1 [Example 98, 1-(2-(1-(2,5-dichlorophenyl)-3-methyl-1H-pyrazol-5-yloxy)phenyl)-3-(4-(trifluoromethoxy)phenyl)urea]	68 nM
Cc1cc(Oc2ccccc2NC(=O)Nc2ccc(-n3cccn3)cc2)n(-c2ccccc2Cl)n1 [Example 99, 1-(4-(1H-pyrazol-1-yl)phenyl)-3-(2-(1-(2-chlorophenyl)-3-methyl-1H-pyrazol-5-yloxy)phenyl)urea]	> 10000 nM
Cc1cc(Oc2ccccc2NC(=O)Nc2ccc(-n3ccnc3)cc2)n(-c2ccccc2Cl)n1 [Example 100, 1-(4-(1H-imidazol-1-yl)phenyl)-3-(2-(1-(2-chlorophenyl)-3-methyl-1H-pyrazol-5-yloxy)phenyl)urea]	> 10000 nM
CCc1ccccc1-n1nc(C)cc1Oc1ccccc1NC(=O)Nc1ccc(C#N)cc1 [Example 101, 1-(4-cyanophenyl)-3-(2-(1-(2-ethylphenyl)-3-methyl-1H-pyrazol-5-yloxy)phenyl)urea]	1020 nM

SMILES	IC50
CCc1ccccc1-n1nc(C)cc1Oc1ccccc1NC(=O)Nc1ccc(-c2cnco2)cc1 [Example 102, 1-(2-(1-(2-ethylphenyl)-3-methyl-1H-pyrazol-5-yloxy)phenyl)-3-(4-(oxazol-5-yl)phenyl)urea]	1190 nM
CCc1ccccc1-n1nc(C)cc1Oc1ccccc1NC(=O)Nc1ccc(OC)cc1 [Example 103, 1-(2-(1-(2-ethylphenyl)-3-methyl-1H-pyrazol-5-yloxy)phenyl)-3-(4-methoxyphenyl)urea]	564 nM
CCc1ccccc1-n1nc(C)cc1Oc1ccccc1NC(=O)Nc1ccc(C(C)C)cc1 [Example 104, 1-(2-(1-(2-ethylphenyl)-3-methyl-1H-pyrazol-5-yloxy)phenyl)-3-(4-isopropylphenyl)urea]	22 nM
CCc1ccccc1-n1nc(C)cc1Oc1ccccc1NC(=O)Nc1ccc(CN2CCCCC2)cc1 [Example 105, 1-(2-(1-(2-ethylphenyl)-3-methyl-1H-pyrazol-5-yloxy)phenyl)-3-(4-(piperidin-1-ylmethyl)phenyl)urea]	> 10000 nM
CCc1ccccc1-n1nc(C)cc1Oc1ccccc1NC(=O)Nc1ccc(F)cc1F [Example 106, 1-(2,4-difluorophenyl)-3-(2-(1-(2-ethylphenyl)-3-methyl-1H-pyrazol-5-yloxy)phenyl)urea]	287 nM
CCc1ccccc1-n1nc(C)cc1Oc1ccccc1NC(=O)Nc1ccc(C(F)(F)F)cc1 [Example 107, 1-(2-(1-(2-ethylphenyl)-3-methyl-1H-pyrazol-5-yloxy)phenyl)-3-(4-(trifluoromethyl)phenyl)urea]	60 nM
CCc1ccccc1-n1nc(C)cc1Oc1ccccc1NC(=O)Nc1ccc(C2CCCCC2)cc1 [Example 108, 1-(4-cyclohexylphenyl)-3-(2-(1-(2-ethylphenyl)-3-methyl-1H-pyrazol-5-yloxy)phenyl)urea]	12 nM
CCc1ccccc1-n1nc(C)cc1Oc1ccccc1NC(=O)Nc1ccc(OC(C)C)cc1 [Example 109, 1-(2-(1-(2-ethylphenyl)-3-methyl-1H-pyrazol-5-yloxy)phenyl)-3-(4-isopropoxyphenyl)urea]	198 nM
CCc1ccccc1-n1nc(C)cc1Oc1ccccc1NC(=O)Nc1ccc(N2CCCCC2)cc1 [Example 110, 1-(2-(1-(2-ethylphenyl)-3-methyl-1H-pyrazol-5-yloxy)phenyl)-3-(4-(piperidin-1-yl)phenyl)urea]	290 nM
CCc1ccccc1-n1nc(C)cc1Oc1ccccc1NC(=O)Nc1ccc(Cl)cc1 [Example 111, 1-(4-chlorophenyl)-3-(2-(1-(2-ethylphenyl)-3-methyl-1H-pyrazol-5-yloxy)phenyl)urea]	133 nM
CCc1ccccc1-n1nc(C)cc1Oc1ccccc1NC(=O)Nc1ccc(-n2cncn2)cc1 [Example 112, 1-(4-(1H-1,2,4-triazol-1-yl)phenyl)-3-(2-(1-(2-ethylphenyl)-3-methyl-1H-pyrazol-5-yloxy)phenyl)urea]	> 10000 nM
Cc1cc(Oc2ccccc2NC(=O)Nc2ccc(OC(F)(F)F)cc2)n(-c2ccccc2C(C)C)n1 [Example 113, 1-(2-(1-(2-isopropylphenyl)-3-methyl-1H-pyrazol-5-yloxy)phenyl)-3-(4-(trifluoromethoxy)phenyl)urea]	57 nM
Cc1cc(Oc2ccccc2NC(=O)Nc2ccc(OC(F)(F)F)cc2)n(-c2ccc(F)cc2Cl)n1 [Example 114, 1-(2-(1-(2-chloro-4-fluorophenyl)-3-methyl-1H-pyrazol-5-yloxy)phenyl)-3-(4-(trifluoromethoxy)phenyl)urea]	12 nM
Cc1cc(Oc2ccccc2NC(=O)Nc2ccc(C3CCCCC3)cc2)n(-c2ccc(F)cc2Cl)n1 [Example 115, 1-(2-(1-(2-chloro-4-fluorophenyl)-3-methyl-1H-pyrazol-5-yloxy)phenyl)-3-(4-cyclohexylphenyl)urea]	18 nM
COC(C)c1ccc(NC(=O)Nc2ccccc2Oc2cc(C)nn2-c2ccccc2Cl)cc1 (centres unmarked) [Example 116, 1-(2-(1-(2-chlorophenyl)-3-methyl-1H-pyrazol-5-yloxy)phenyl)-3-(4-(1-methoxyethyl)phenyl)urea]	1120 nM
Cc1cc(Oc2ccccc2NC(=O)Nc2ccc(C(C)N(C)C)cc2)n(-c2ccccc2Cl)n1 (centres unmarked) [Example 117, 1-(2-(1-(2-chlorophenyl)-3-methyl-1H-pyrazol-5-yloxy)phenyl)-3-(4-(1-(dimethylamino)ethyl)phenyl)urea]	> 10000 nM
